Assay results reported in patent US12492182B2, “Hydroxytriazine compounds and pharmaceutical use thereof” (Japan Tobacco Inc., priority 2015, dated 2025).
pIC50: −log10 of the molar value. Like-named read-outs stand apart in the source and are kept apart here.

What was measured:
human mPGES-1 = molecular target: T1, human mPGES-1 (Homo sapiens, UniProt O14684); experiment: Evaluation of human mPGES-1 enzyme inhibitory activity (HTRF measurement of PGE2); type: biochemical; conditions: IC50 value; microsome fraction of CHO-S cells expressing human mPGES-1, PGH2 substrate, PGE2 by HTRF; read-out: humans mPGES-1 enzyme inhibitory activity
T1 construct: made in house; host or cells: Chinese hamster ovary-derived cells (FreeStyle CHO-S), transient transfection of pcDNA3.1(+)/human mPGES-1; microsome fraction
T1 sequence (O14684 1-152): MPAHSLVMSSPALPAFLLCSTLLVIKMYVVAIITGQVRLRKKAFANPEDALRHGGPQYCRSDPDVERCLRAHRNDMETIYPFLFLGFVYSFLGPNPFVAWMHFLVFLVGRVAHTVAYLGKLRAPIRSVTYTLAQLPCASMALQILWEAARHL
Procedure, shortened: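 Enzyme source was a microsome fraction from CHO-S cells transfected with human mPGES-1, diluted to 5 μg/mL protein in reduced GSH (12.5 mmol/L KPB), preincubated with compound for 10 min at room temperature with 2% final DMSO. Reaction started with PGH2 and run 45 seconds at room temperature. PGE2 measured by HTRF.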

A549 cell = experiment: Evaluation of PGE2 production inhibitory action using A549 cell (IL-1β stimulated); type: cell-based, human; conditions: recombinant human IL-1β stimulation, read-out: cell PGE2 production inhibitory activity (IC50 value)
Procedure, shortened: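 A549 cells (human lung cancer) in F-12K with 2% FBS were preincubated with test article for 30 min, then stimulated with IL-1β (1 ng/mL final) for 18 hr at 37 °C; 0.5% DMSO final. Supernatant PGE2 was measured by HTRF against a standard curve; inhibition is relative to vehicle and unstimulated blank wells.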

[1] = Measurement of solubility in Britton-Robinson buffer solution (pH 8.5) containing 0.5 W/V % polysorbate 80; type: physicochemical; conditions: Britton-Robinson buffer pH 8.5 containing 0.5 W/V % polysorbate 80, 20° C., 18 hr
Description: Experimental Example 5: Measurement of Solubility
(2) Britton-Robinson Buffer Solution (pH 8.5) Containing 0.5 W/V % Polysorbate 80
The test article was weighted in glass microtube, and dispersed in Britton-Robinson buffer solution (pH 8.5, 1.5 mL) containing 0.5 W/V % polysorbate 80 to prepare a suspension. The suspension was shaked at 20° C. for 18 hr, and filtered through a membrane filter (0.45 μm), and the filtrate was used as a sample.
(3) Preparation of Standard Solution and Sample Solution, and Measurement of Solubility
Sample solution was prepared by appropriately diluting sample with a mixture of water/acetonitrile (1:1). Standard solution was prepared by precisely weighting the test article, and then diluting the test article with a mixture of water/acetonitrile (1:1). The standard solution and sample solution were analyzed by liquid chromatography, and the test article content of the sample solution was calculated according to external standard method, based on which the solubility was determined.

Compound: CO[C@](C)(C(=O)NCc1ccc(Cl)c(-c2nc(O)nc(-c3cccc(C(C)(C)C)c3)n2)c1)C(F)(F)F [Example 66, (R)—N-{3-[4-(3-tert-butylphenyl)-6-hydroxy-1,3,5-triazin-2-yl]-4-chlorobenzyl}-3,3,3-trifluoro-2-methoxy-2-methylpropionamide]
- pIC50 (human mPGES-1): 9.15
- pIC50 (A549 cell; Homo sapiens, A549, A549 cell): 8.42
- 0.5% polysorbate 80 solubility (%) at pH 8.5 [1]: 0.136%

Compound: CC(C)c1cccc(-c2nc(O)nc(-c3cc(CNC(=O)C4(C(F)(F)F)CCCCC4)ccc3Cl)n2)c1 [Example 71, 1-trifluoromethylcyclohexanecarboxylic acid 4-chloro-3-[4-hydroxy-6-(3-isopropylphenyl)-1,3,5-triazin-2-yl]benzylamide]
- pIC50 (human mPGES-1): 9.15
- pIC50 (A549 cell; Homo sapiens, A549, A549 cell): 8.47
- 0.5% polysorbate 80 solubility (%) at pH 8.5 [1]: 0.057%

Compound: CCC[C@@H](C)Oc1ccc(-c2nc(O)nc(-c3cc(CNC(=O)C(CC)(CC)OC)ccc3Cl)n2)cn1 [Example 79, 2-ethyl-N-(4-chloro-3-{4-hydroxy-6-[6-((R)-1-methylbutoxy)pyridin-3-yl]-1,3,5-triazin-2-yl}benzyl)-2-methoxybutanamide]
- pIC50 (human mPGES-1): 8.34
- pIC50 (A549 cell; Homo sapiens, A549, A549 cell): 8.59
- 0.5% polysorbate 80 solubility (%) at pH 8.5 [1]: 0.157%

Compound: CCCCCCOc1ccc(-c2nc(O)nc(-c3cc(CNC(=O)C(C)(C)OC)ccc3Cl)n2)cn1 [Example 81, N-{4-chloro-3-[4-(6-hexyloxypyridin-3-yl)-6-hydroxy-1,3,5-triazin-2-yl]benzyl}-2-methoxy-2-methylpropionamide]
- pIC50 (human mPGES-1): 8.68
- pIC50 (A549 cell; Homo sapiens, A549, A549 cell): 8.30
- 0.5% polysorbate 80 solubility (%) at pH 8.5 [1]: 0.071%

Compound: CC(C)(C)c1cccc(-c2nc(O)nc(-c3cc(CNC(=O)C4(C(F)(F)F)CCCCC4)ccc3Cl)n2)c1 [Example 107, 1-trifluoromethylcyclohexanecarboxylic acid 3-[4-(3-tert-butylphenyl)-6-hydroxy-1,3,5-triazin-2-yl]-4-chlorobenzylamide]
- pIC50 (human mPGES-1): 8.59
- pIC50 (A549 cell; Homo sapiens, A549, A549 cell): 8.68
- 0.5% polysorbate 80 solubility (%) at pH 8.5 [1]: 0.032%

Compound: CCC[C@H](C)Oc1ccc(-c2nc(O)nc(-c3cc(CNC(=O)C(CC)(CC)CF)ccc3Cl)n2)cn1 [Example 131]
- pIC50 (human mPGES-1): 8.54
- pIC50 (A549 cell; Homo sapiens, A549, A549 cell): 8.72
- 0.5% polysorbate 80 solubility (%) at pH 8.5 [1]: 0.109%

Compound: CCC(OC)(C(=O)NCc1ccc(Cl)c(-c2nc(O)nc(-c3ccc(Cl)c(C(C)C)c3)n2)c1)C(F)(F)F (stereo not shown) [Example 137]
- pIC50 (human mPGES-1): 8.33
- pIC50 (A549 cell; Homo sapiens, A549, A549 cell): 8.59

Compound: CCC(OC)(C(=O)NCc1ccc(Cl)c(-c2nc(O)nc(-c3cccc(C4(C)CC4)c3)n2)c1)C(F)(F)F (stereo not shown) [Example 138]
- pIC50 (human mPGES-1): 8.82
- pIC50 (A549 cell; A549 cell): 8.08

Compound: CCC(OC)(C(=O)NCc1ccc(Cl)c(-c2nc(O)nc(-c3ccc(Cl)c(C(C)C)c3)n2)c1)C(F)(F)F (stereo not shown) [Example 139]
- pIC50 (human mPGES-1): 8.27
- pIC50 (A549 cell; A549 cell): 8.68

Compound: CCC[C@H](C)Oc1ccc(-c2nc(O)nc(-c3cc(CNC(=O)C4(C(F)(F)F)CCCC4)ccc3Cl)n2)cn1 [Example 140]
- pIC50 (human mPGES-1): 8.00
- pIC50 (A549 cell; Homo sapiens, A549, A549 cell): 9.10

Compound: CCC[C@H](C)Oc1ccc(-c2nc(O)nc(-c3cc(CNC(=O)C4(CF)CCCCCC4)ccc3Cl)n2)cn1 [Example 141]
- pIC50 (human mPGES-1): 7.85
- pIC50 (A549 cell; Homo sapiens, A549, A549 cell): 8.42
